Each structure is given as a SMILES string. Like-named read-outs stand apart in the source and are kept apart here.

One assay addresses Gelatinase E (GelE) (Enterococcus faecalis (strain ATCC 700802 / V583), UniProt Q833V7). The assay is described as follows: Gelatinase E activity assay (FRET peptide substrate). Conditions: for IC50: Table 11. The class given is biochemical. As for the experimental part:
Gelatinase E (Gel E) was purified from bacterial culture supernatant from E. faecalis. E. faecalis was cultured aerobically in Todd Hewitt Broth overnight at 37° C. Nucleic acid was precipitated with 0.9% protamine solution, followed by protein precipitation with ammonium sulfate. Resuspended protein pellet was further subjected to purification using FPLC (phenyl Sepharose column). Fractions with gelatinase activity as determined by casein agar assay were pooled and further concentrated.
Different concentrations of test compound were incubated with purified GelE and FRET-based peptide substrate (390 MMP FRET Substrate 1; Anaspec AS-27077) in assay buffer at room temperature for 30 minutes. The fluorescence signal was determined by a plate reader.

A further assay concerns the target collagenase H (ColH) (Hathewaya histolytica, UniProt Q46085). The assay is described as follows: biochemical. Details: species or system Clostridium histolyticum.
A further assay relates to BFT. The assay is described as follows: E-cadherin release assay (BFT-induced E-cadherin release from HT29 cells). The format is cell-based, B. fragilis. The procedure: Test compounds were also screened for their ability to inhibit BFT-induced E-cadherin release from HT29 cells.
Different concentrations of test compounds were pre-incubated with rBFT for one hour at 37° C. The rBFT-compound mixture was then added to HT29 cells and incubated at 37° C. for 18 hours. Following incubation, cell supernatants were harvested and E-cadherin was quantified in the supernatants by ELISA (FIG. 2).

Another assay has as its system recombinant BFT (rBFT). The assay is described as follows: NFF-3 cleavage assay. The class given is biochemical, B. fragilis. The procedure: A NFF-3 cleavage assay was used to test activity of recombinant BFT, before or after addition of various inhibitors. The NFF-3 cleavage assay was previously described by Goulas et al., PNAS, 2011, 108(5) 1856-1861, which is incorporated by reference herein in its entirety.
Initially, recombinant BFT (rBFT) (0.25, 0.5, 1, 2, 4, 8, or 16 μg/mL) was incubated at 37° C. with the fluorogenic substrate NFF-3 (Cayman Chemical) at a concentration of 2.5 μM, 5 μM, or 10 μM. After 18 hours, fluorescence was measured in a microplate fluorimeter.
Next, rBFT was pre-incubated with one or more test compounds at different concentrations for 30 minutes at 37° C. The rBFT-compound mixture was then added to NFF-3 and incubated for 24 hours at 37° C. Fluorescence was then measured in a microplate fluorimeter.

In another assay the test system is ETBF. Briefly: ETBF-mediated disease model in mono-colonized germ-free mice. The class given is in vivo. The settings on record: for lipocalin2 levels: 15-50 mg/kg p.o., QD. The procedure: Test compounds were also screened in vivo. Germ-free (GF) mice were mono-colonized with ETBF on day 0. […] Markers of injury and inflammation (e.g., cecal weight and fecal lipocalin 2) were analyzed on day 4 (FIG. 6A). Sample size was 5-6 mice per group.

The mark [1] stands for this setting: 18 hours, E-cadherin in supernatant by ELISA, read-out: HT29 Cell IC50.
Setting [2] is: rBFT pre-incubated with compound 30 minutes at 37° C., then NFF-3 for 24 hours, read-out: NFF3 IC50.
[3] abbreviates: ETBF-colonized mice, 50 mg/kg oral BID days 1-3, analyzed day 4.

Chain of Gelatinase E (GelE) (Q833V7 193-510 limits assumed): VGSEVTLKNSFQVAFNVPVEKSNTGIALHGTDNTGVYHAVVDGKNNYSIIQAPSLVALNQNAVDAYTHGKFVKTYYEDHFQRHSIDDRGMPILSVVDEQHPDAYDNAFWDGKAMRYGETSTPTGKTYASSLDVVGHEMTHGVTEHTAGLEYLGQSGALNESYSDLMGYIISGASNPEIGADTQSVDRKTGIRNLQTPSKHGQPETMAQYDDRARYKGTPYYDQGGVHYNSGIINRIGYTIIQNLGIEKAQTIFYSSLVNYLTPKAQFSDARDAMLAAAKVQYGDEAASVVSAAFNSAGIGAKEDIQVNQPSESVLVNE
Chain of collagenase H (ColH) (Q46085 41-1021 limits assumed): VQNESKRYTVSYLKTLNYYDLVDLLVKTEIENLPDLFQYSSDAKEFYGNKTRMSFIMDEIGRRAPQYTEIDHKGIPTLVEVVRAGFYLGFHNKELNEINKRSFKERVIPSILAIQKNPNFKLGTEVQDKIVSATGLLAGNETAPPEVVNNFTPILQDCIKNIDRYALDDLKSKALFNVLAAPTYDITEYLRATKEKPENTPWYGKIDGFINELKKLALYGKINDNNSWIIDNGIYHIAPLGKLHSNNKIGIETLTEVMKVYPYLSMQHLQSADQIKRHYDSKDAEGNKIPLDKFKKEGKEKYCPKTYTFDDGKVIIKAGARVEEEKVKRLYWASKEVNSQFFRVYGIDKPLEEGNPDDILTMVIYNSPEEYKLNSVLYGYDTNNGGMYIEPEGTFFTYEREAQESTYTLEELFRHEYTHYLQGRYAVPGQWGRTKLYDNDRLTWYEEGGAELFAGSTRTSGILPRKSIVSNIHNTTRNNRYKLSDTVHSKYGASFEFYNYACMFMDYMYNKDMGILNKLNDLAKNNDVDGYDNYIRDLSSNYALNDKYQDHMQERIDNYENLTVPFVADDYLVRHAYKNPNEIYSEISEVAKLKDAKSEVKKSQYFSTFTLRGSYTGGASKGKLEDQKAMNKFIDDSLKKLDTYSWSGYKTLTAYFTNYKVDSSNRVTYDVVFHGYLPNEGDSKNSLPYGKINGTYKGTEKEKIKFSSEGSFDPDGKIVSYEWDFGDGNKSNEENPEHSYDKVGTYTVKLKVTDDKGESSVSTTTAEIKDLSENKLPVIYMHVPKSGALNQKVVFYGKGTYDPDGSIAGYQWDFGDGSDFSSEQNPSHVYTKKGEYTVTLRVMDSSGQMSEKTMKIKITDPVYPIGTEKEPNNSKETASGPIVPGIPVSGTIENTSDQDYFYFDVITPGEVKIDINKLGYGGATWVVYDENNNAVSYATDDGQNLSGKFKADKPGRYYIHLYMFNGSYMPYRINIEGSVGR

Regarding `COc1ccc(S(=O)(=O)N(CC(=O)NO)CC(C)C)cc1` [A], the “GelE inhibition” value at Gelatinase E (GelE) (FIG. 7) was “high levels of GelE inhibition”. In addition, the IC50 is 0.202 µM against Gelatinase E (GelE) and 0.612 µM at collagenase H (ColH) (read-out: ColH IC50). Moreover, at collagenase H (ColH), the “ColH inhibition” value is “high levels of ColH inhibition”. Take `CCOc1ccc(S(=O)(=O)N(CC(=O)NO)CC(C)C)cc1` [C]: the IC50 against Gelatinase E (GelE) was 0.372 µM; on collagenase H (ColH) (read-out: ColH IC50), more than 100 µM. `CCCOc1ccc(S(=O)(=O)N(CC(=O)NO)CC(C)C)cc1` [D]: the IC50 on Gelatinase E (GelE) was 0.489 µM; on collagenase H (ColH) (read-out: ColH IC50), more than 100 µM. `CC(C)CN(CC(=O)NO)S(=O)(=O)c1ccc(OC(C)C)cc1` [E]: the results for the IC50 against Gelatinase E (GelE) and on collagenase H (ColH) (read-out: ColH IC50) were 1.21 µM and more than 100 µM, respectively. Consider `CC(C)C[C@H](C(=O)NO)N(Cc1cccnc1)S(=O)(=O)c1ccc(O)cc1` [Example 1, (R)—N-hydroxy-2-((4-hydroxy-N-(pyridin-3-ylmethyl)phenyl)sulfonamido)-4-methylpentanamide], for which the IC50 was 1.52 µM in the assay with BFT (setting [1]) and less than 0.15 µM with recombinant BFT (rBFT) (setting [2]).

Consider `C[C@H](O)[C@H](C(=O)NO)N(Cc1cccnc1)S(=O)(=O)c1ccc(O)cc1` [Example 2], for which the IC50 in the assay on BFT (setting [1]) is 6.72 µM; with recombinant BFT (rBFT) (setting [2]), more than 1 µM. Take `CSCC[C@H](C(=O)NO)N(Cc1cccnc1)S(=O)(=O)c1ccc(O)cc1` [Example 3]: the IC50 with BFT (setting [1]) was 3.84 µM; in the assay with recombinant BFT (rBFT) (setting [2]) it was 0.24 µM. With `O=C(NO)[C@@H](Cc1ccc(O)cc1)N(Cc1cccnc1)S(=O)(=O)c1ccc(O)cc1` [Example 4], the IC50 with BFT (setting [1]) was found to be 6.33 µM; in the assay on recombinant BFT (rBFT) (setting [2]), 2.04 µM. Regarding `O=C(NO)[C@@H](Cc1ccccc1)N(Cc1cccnc1)S(=O)(=O)c1ccc(O)cc1` [Example 5], the IC50 in the assay on BFT (setting [1]) is 4.91 µM; in the assay on recombinant BFT (rBFT) (setting [2]), 0.24 µM.

Regarding `O=C(NO)[C@@H](Cc1c[nH]c2ccccc12)N(Cc1cccnc1)S(=O)(=O)c1ccc(O)cc1` [Example 6], the IC50 in the assay with BFT (setting [1]) was 1.62 µM; in the assay with recombinant BFT (rBFT) (setting [2]), 0.15 µM. Take `COc1ccc(S(=O)(=O)N(Cc2cccnc2)[C@H](Cc2ccccc2)C(=O)NO)cc1` [Example 19]: the IC50 in the assay on BFT (setting [1]) was 8.26 µM; in the assay on recombinant BFT (rBFT) (setting [2]), 1.24 µM. In the case of `O=C(NO)[C@@H](Cc1ccc(C(F)(F)F)cc1)N(Cc1cccnc1)S(=O)(=O)c1ccc(O)cc1` [Example 20], the IC50 came out at 7.32 µM with BFT (setting [1]) and 0.86 µM in the assay on recombinant BFT (rBFT) (setting [2]). For `COc1ccc(S(=O)(=O)N(Cc2cccnc2)[C@H](Cc2ccc(C(F)(F)F)cc2)C(=O)NO)cc1` [Example 21] the same measures were more than 16 µM and 2.75 µM. For the compound `O=C(NO)C(c1ccccc1)N(Cc1cccnc1)S(=O)(=O)c1ccc(O)cc1` (stereo not shown) [Example 22], the IC50 in the assay with BFT (setting [1]) turned out to be 17.3 µM; in the assay on recombinant BFT (rBFT) (setting [2]), 0.66 µM. For `O=C(NO)C(c1ccc(F)cc1)N(Cc1cccnc1)S(=O)(=O)c1ccc(O)cc1` (stereo not shown) [Example 23] the same measures were more than 50 µM and 0.3 µM. Take `O=C(CN(Cc1cccnc1)S(=O)(=O)c1ccc(O)cc1)NO` [Example 24]: the IC50 in the assay on BFT (setting [1]) is 19.1 µM; in the assay on recombinant BFT (rBFT) (setting [2]), 1.1 µM. In the case of `CC[C@H](C(=O)NO)N(Cc1cccnc1)S(=O)(=O)c1ccc(O)cc1` [Example 25], the figures for the IC50 in the assay with BFT (setting [1]) and in the assay on recombinant BFT (rBFT) (setting [2]) were 0.78 µM and 0.09 µM, respectively. For `CC(C)C[C@H](C(=O)NO)N(Cc1ccc(F)cc1)S(=O)(=O)c1ccc(O)cc1` [Example 26], the IC50 was 1.28 µM in the assay on BFT (setting [1]) and 19.3 µM against collagenase H (ColH).

Take `CC(C)C[C@H](C(=O)NO)N(Cc1cccnc1)S(=O)(=O)c1cccc(O)c1` [Example 27]: the IC50 was more than 50 µM with BFT (setting [1]) and 5.95 µM in the assay with recombinant BFT (rBFT) (setting [2]). Take `CC(C)C[C@H](C(=O)NO)N(Cc1ccncc1)S(=O)(=O)c1ccc(O)cc1` [Example 28]: the IC50 in the assay on BFT (setting [1]) is 0.198 µM. Consider `CC(C)C[C@H](C(=O)NO)N(Cc1cscn1)S(=O)(=O)c1ccc(O)cc1` [Example 30], for which the IC50 in the assay with BFT (setting [1]) came to 0.97 µM. Consider `COc1cccc(S(=O)(=O)N(Cc2cccnc2)[C@H](CC(C)C)C(=O)NO)c1` [Example 31], for which the IC50 in the assay with BFT (setting [1]) was more than 50 µM; in the assay with recombinant BFT (rBFT) (setting [2]), 20.1 µM. In the case of `CC(C)C[C@H](C(=O)NO)N(Cc1cnco1)S(=O)(=O)c1ccc(O)cc1` [Example 32], the IC50 in the assay on BFT (setting [1]) came to 5.17 µM; in the assay with recombinant BFT (rBFT) (setting [2]), 0.51 µM.

Consider `CC(C)C[C@H](C(=O)NO)N(Cc1ccc2[nH]ccc2c1)S(=O)(=O)c1ccc(O)cc1` [Example 33], for which the IC50 was 1.74 µM with BFT (setting [1]), 0.14 µM with recombinant BFT (rBFT) (setting [2]) and 0.384 µM against collagenase H (ColH). `CCC[C@H](C(=O)NO)N(Cc1cccnc1)S(=O)(=O)c1ccc(O)cc1` [Example 42]: the IC50 in the assay on recombinant BFT (rBFT) (setting [2]) was 0.09 µM; at collagenase H (ColH), 8.78 µM. Moreover, the lipocalin2 levels result with ETBF is “significantly reduce”. For `CC[C@H](C(=O)NO)N(CCc1cccnc1)S(=O)(=O)c1ccc(O)cc1` [Example 60, (R)—N-hydroxy-2-((4-hydroxy-N-(2-(pyridin-3-yl)ethyl)phenyl)sulfonamido)butanamide] the same measures were 0.0188 µM, 3.82 µM and “significantly reduce”. `CCC[C@H](C(=O)NO)N(Cc1ccc2[nH]ccc2c1)S(=O)(=O)c1ccc(O)cc1` [Example 63]: half-maximal inhibition against collagenase H (ColH) (IC50) required 8.89 µM. For `CC(C)CN(CC(=O)NO)S(=O)(=O)c1ccc(OCc2ccc(F)cc2)cc1` [F], the IC50 against Gelatinase E (GelE) is 0.649 µM; at collagenase H (ColH) (read-out: ColH IC50) it was more than 100 µM. Consider `COCCOc1ccc(S(=O)(=O)N(CC(=O)NO)CC(C)C)cc1` [G], for which the IC50 was 0.443 µM on Gelatinase E (GelE) and more than 100 µM on collagenase H (ColH) (read-out: ColH IC50).

With `COc1ccc(S(=O)(=O)N(CC(=O)O)Cc2cccnc2)cc1` [I], the IC50 on Gelatinase E (GelE) and on collagenase H (ColH) (read-out: ColH IC50) was more than 100 µM each time.

In the case of `CNC(=O)COc1ccc(S(=O)(=O)N(CC(=O)NO)CC(C)C)cc1` [K], the IC50 was 0.512 µM against Gelatinase E (GelE) and more than 100 µM against collagenase H (ColH).

For the compound `COc1ccc(S(=O)(=O)N(CC(=O)NO)CC(C)C)cn1` [L], the IC50 on Gelatinase E (GelE) was 0.336 µM; on collagenase H (ColH) (read-out: ColH IC50), more than 100 µM. The corresponding values for `CSc1ccc(S(=O)(=O)N(CC(=O)NO)CC(C)C)cc1` [M] are 0.257 µM and more than 100 µM. Take `CC(C)[C@H](C(=O)NO)N(Cc1cccnc1)S(=O)(=O)c1ccc(O)cc1` [OH-CGS-23270A, 2(R)-[4-Hydroxy-N-(3-pyridylmethyl)phenylsulfonamido]-3-methylbutyrohydroxamic acid, reference compound]: in the assay on ETBF (setting [3]), the “cecal weight compared to vehicle control” value is “significantly increased” and the “fecal lipocalin2 compared to vehicle control” value was “significantly decreased”. `CC(C)[C@H](C(=O)NO)N(Cc1cccnc1)S(=O)(=O)c1ccc(O)cc1` [OH-CGS-27023A, 2(R)-[4-hydroxy-N-(3-pyridylmethyl)phenylsulfonamido]-3-methylbutyrohydroxamic acid, reference compound]: the IC50 in the assay on BFT (FIG. 4, read-out: IC50, inhibition of BFT (E-cadherin release)) was 1.99 µM; with recombinant BFT (rBFT) (Table 9, FIG. 5B, read-out: IC50, inhibition of BFT-induced NFF-3 release), 0.366 µM.

As to `COc1ccc(S(=O)(=O)N(CC(=O)NO)CC(F)F)cc1` [P], the IC50 against Gelatinase E (GelE) is 9.09 µM; on collagenase H (ColH) (read-out: ColH IC50) it was more than 100 µM. On to `COc1ccc(S(=O)(=O)N(CC(=O)NO)Cc2ccccc2)cc1` [S], for which, on Gelatinase E (GelE), the IC50 came out at 0.205 µM. At Gelatinase E (GelE), `COc1ccc(-n2ccc(CCC(=O)NO)n2)cc1` [V] yielded an IC50 of 12.7 µM. `CC(C)CN(CC(=O)NO)S(=O)(=O)c1ccc(OCC(F)F)cc1` [X] gave an IC50 on Gelatinase E (GelE) of 0.18 µM. In turn, `COCCN(CC(=O)NO)S(=O)(=O)c1ccc(OC)cc1` [Y] showed an IC50 on Gelatinase E (GelE) of 6.77 µM.

In the case of `CC(C)CN(CC(=O)NO)S(=O)(=O)c1ccc(OCCF)cc1` [Z], half-maximal inhibition against Gelatinase E (GelE) (IC50) required 0.246 µM.

The values above are taken from patent publication US20230357139A1, “SMALL MOLECULE INHIBITORS OF BACTERIAL TOXINS” (Artizan Biosciences, Inc., priority 2020, published 2023).
